Reference: patent publication US20240294499A1, “TARGETED PROTEIN DEGRADATION USING BIFUNCTIONAL COMPOUNDS THAT BIND UBIQUITIN LIGASE AND TARGET MCL-1 PROTEIN” (Captor Therapeutics S.A., priority 2021, published 2024)

Key:
[1] = target: T1, [MCL-1]-[compound of formula (I)]-[CRBN/DDB1] complex (Homo sapiens, UniProt Q07820+Q96SW2); experiment: HTRF ternary complex assay; type: binding; conditions: ternary complex formation; read-out: HTRF ternary complex Average pEC50 by molecule (converted)
Outline: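 hMcl-1 and CRBN (mix at 48 nM and 105.6 nM) with Streptavidin-Eu cryptate and anti-6×His-d2 in PPI Europium buffer with 2 mM DTT; compounds in dose-response, 0.5% DMSO. Incubated 180 min at 25° C, TR-FRET 665/620 read. Bell-shaped curve fitted by Gaussian; EC50 reported.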

DMS 114 cells = experiment: Cell viability assay (CellTiter-Glo), DMS 114; type: cell-based; conditions: 72 hours incubation, 10% FBS; for IC50: Homo sapiens, DMS-114, 72 h, read-out: Average pIC50 by molecule DMS 114 (converted)
From the text: The effect of various compounds of the invention on the viability of DMS 114 cell line was investigated, using the CTG protocol described below.
DMS 114 cell line is derived from small-cell lung cancer, which is described in the literature as MCL-1 dependent lines [Yasuda Y et al. Cell Death & Disease 2020; 11: 177].
DMS 114 cells were detached with trypsin and then resuspended in growth medium containing 10% FBS and counted. Cell suspension was then adjusted to 5×10^4 cells/ml using growth medium containing 10% FBS. Afterwards, […] were seeded on 384-well plates (50 μl). Plates were then placed in the incubator overnight until treated. Next day, compounds were added using ECHO 555 liquid handler. Compound concentrations used in this assay: 1/3 dilutions starting at 30 uM (9 to 12 points).
After 72 hours of incubation, cell viability was evaluated using CellTiter-Glo Luminescent Cell Viability Assay (Promega, cat #G7572). Luminescence signal was measured using a CLARIOstar Plus Multi-Mode Microplate Reader (574-590 nm).

ARH-77 cells = experiment: Cell viability assay (CellTiter-Glo), ARH-77; type: cell-based; conditions: 1% FBS; for IC50: Homo sapiens, ARH-77, 24 hours incubation, read-out: Average pIC50 by molecule ARH-77 (converted)
Outline: (§1)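 Luminescent ATP readout (CellTiter-Glo) at 24 hours measured viability, expressed relative to DMSO-treated wells. Compound was added directly to the medium as a 9–12-point threefold series starting at 30 uM, at 0.5% final DMSO. The medium contained FBS reduced to 1%.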

[2] = target: T1, [MCL-1]-[compound of formula (I)]-[CRBN/DDB1] complex; experiment: AlphaLISA dose response ternary complex formation assay; type: binding; conditions: for EC50: read-out: AlphaLISA dose response Average pEC50 by molecule (converted)
Outline: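 EC50 comes from dose–response of AlphaLISA luminescence (excitation 680, emission 615 nm), normalised between DMSO background and an internal positive control, with concentrations past the hook point dropped. Ternary complex formed by mixing bead-bound biotin-hMCL-1 and His-CRBN/DDB1 (protein solutions 40 and 200 nM) with compound in 2% DMSO, 30 min, 25 °C.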

MV-4-11 cells = experiment: Cell viability assay (CellTiter-Glo), MV-4-11; type: cell-based; conditions: 1% FBS; for IC50: Homo sapiens, MV4-11, 24 hours incubation, read-out: Average pIC50 by molecule MV-4-11 (converted)
Outline: as §1

OPM-2 cells = experiment: Cell viability assay (CellTiter-Glo), OPM-2; type: cell-based; conditions: Homo sapiens, 24 hours incubation, 1% FBS, read-out: Average pIC50 by molecule OPM-2 (converted)
From the text: The effect of various compounds of the invention on the viability of OPM-2, MV-4-11 and ARH-77 cell lines was investigated, using the CTG protocol described below.
OPM-2 and MV-4-11 cell lines are derived from multiple myeloma and acute myeloid leukaemia, respectively. Both cell lines are described in the literature as MCL-1 dependent lines, as opposed to lymphoblast-like ARH-77 cell line, which is described as independent of MCL-1 (Tron A E et al. Nat Commun. 2018; 9: 5341; Caenepeel S et al. Cancer Discov. 2018 December; 8(12):1582-1597).
Cells (OPM-2, MV-4-11 or ARH-77) were seeded on […] in a growth medium with FBS reduced to 1%. Next, compound stocks were pre-diluted in DMSO and added directly to the cells growth medium (final DMSO concentration: 0.5%). Compound concentrations used in this assay: 1/3 dilutions starting at 30 uM (9 to 12 points).
After 24 hours of incubation, cell viability was evaluated using CellTiter-Glo Luminescent Cell Viability Assay (Promega, cat #G7572). Luminescence signal was measured using a CLARIOstar Plus Multi-Mode Microplate Reader (574-590 nm).
Results were normalized to DMSO control.

T1 sequence (Q07820 whole entry): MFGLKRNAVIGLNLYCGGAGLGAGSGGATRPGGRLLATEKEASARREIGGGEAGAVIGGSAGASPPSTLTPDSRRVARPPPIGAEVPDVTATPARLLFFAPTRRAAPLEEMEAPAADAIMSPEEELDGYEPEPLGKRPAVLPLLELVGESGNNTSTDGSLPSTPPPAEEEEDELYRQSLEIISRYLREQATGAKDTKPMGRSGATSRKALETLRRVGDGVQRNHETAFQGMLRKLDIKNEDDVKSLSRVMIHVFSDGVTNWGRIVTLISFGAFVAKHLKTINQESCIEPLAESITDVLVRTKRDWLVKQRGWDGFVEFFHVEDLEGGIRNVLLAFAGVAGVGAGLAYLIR
T1 sequence (Q96SW2 whole entry): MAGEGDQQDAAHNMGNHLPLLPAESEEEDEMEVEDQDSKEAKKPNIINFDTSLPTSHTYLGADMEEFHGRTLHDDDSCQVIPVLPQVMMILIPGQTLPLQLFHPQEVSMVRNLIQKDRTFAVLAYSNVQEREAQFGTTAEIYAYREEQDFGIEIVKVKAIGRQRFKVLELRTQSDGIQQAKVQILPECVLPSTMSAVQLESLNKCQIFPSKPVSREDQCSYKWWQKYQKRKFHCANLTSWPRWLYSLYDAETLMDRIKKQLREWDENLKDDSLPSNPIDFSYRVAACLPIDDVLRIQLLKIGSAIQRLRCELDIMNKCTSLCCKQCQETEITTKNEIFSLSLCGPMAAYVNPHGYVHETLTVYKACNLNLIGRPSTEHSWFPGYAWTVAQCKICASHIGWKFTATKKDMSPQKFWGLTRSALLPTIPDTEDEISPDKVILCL
T1 sequence (Q16531 whole entry partner): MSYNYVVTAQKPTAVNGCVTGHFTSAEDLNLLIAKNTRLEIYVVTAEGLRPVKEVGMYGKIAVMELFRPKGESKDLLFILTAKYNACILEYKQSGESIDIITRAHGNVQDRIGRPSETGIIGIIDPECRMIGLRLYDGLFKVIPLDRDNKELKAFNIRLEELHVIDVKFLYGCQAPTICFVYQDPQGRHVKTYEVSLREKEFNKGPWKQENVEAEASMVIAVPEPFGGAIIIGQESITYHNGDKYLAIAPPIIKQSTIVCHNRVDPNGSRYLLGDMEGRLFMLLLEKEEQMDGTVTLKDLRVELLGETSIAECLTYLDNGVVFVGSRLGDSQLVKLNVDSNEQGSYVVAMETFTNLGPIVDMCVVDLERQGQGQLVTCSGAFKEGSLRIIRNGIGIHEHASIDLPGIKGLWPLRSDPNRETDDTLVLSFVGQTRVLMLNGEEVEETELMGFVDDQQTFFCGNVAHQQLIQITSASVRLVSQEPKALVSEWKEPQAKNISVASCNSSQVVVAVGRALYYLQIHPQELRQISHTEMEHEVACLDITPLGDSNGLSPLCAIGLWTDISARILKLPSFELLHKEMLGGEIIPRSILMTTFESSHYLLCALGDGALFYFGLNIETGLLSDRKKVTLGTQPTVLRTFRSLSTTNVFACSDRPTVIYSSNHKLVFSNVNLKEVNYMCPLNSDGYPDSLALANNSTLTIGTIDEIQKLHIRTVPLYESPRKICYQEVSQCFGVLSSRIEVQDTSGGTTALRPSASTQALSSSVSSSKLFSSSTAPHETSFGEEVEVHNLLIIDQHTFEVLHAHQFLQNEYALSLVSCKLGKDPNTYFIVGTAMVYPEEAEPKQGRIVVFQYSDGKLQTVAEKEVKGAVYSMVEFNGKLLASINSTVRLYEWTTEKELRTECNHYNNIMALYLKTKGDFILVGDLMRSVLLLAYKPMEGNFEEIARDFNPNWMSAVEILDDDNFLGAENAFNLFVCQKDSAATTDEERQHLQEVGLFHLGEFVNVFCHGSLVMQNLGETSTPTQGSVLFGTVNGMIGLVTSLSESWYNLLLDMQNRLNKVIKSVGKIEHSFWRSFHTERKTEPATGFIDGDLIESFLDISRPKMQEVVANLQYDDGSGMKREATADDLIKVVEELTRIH

SMILES	EC50 [1] [nM]	IC50 (DMS 114 cells) [nM]	IC50 (ARH-77 cells) [nM]	EC50 [2] [nM]	IC50 (MV-4-11 cells) [nM]	IC50 (OPM-2 cells) [nM]	Average pIC50 by molecule DMS 114 (DMS 114 cells)	Average pIC50 by molecule ARH-77 (ARH-77 cells; 24 hours incubation)	AlphaLISA dose response Average pEC50 by molecule [2]	Average pIC50 by molecule MV-4-11 (MV-4-11 cells; 24 hours incubation)
Cc1nn(C)c(C)c1-c1c(Cl)ccc2c(CCCOc3cccc4c3CCCC4)c(C(=O)O)n(CCN3CCN(C(=O)COc4cccc5c4C(=O)N(C4CCC(=O)NC4=O)C5=O)CC3)c12 (stereo not drawn) [Compound 216, 6-chloro-1-{2-[4-(2-{[2-(2,6-dioxopiperidin-3-yl)-1,3-dioxo-2,3-dihydro-1H-isoindol-4-yl]oxy}acetyl)piperazin-1-yl]ethyl}-3-[3-(5,6,7,8-tetrahydronaphthalen-1-yloxy)propyl]-7-(1,3,5-trimethyl-1H-pyrazol-4-yl)-1H-indole-2-carboxylic acid]	< 10	≤ 3160	> 10000	< 10	≤ 100	≤ 100	–	–	–	–
Cc1nn(C)c(C)c1-c1c(Cl)ccc2c(CCCOc3cccc4cc(F)ccc34)c(C(=O)O)n(CCN3CCN(C(=O)Cn4c(C)nc5c(C(=O)NC6CCC(=O)NC6=O)ccc(Br)c54)CC3)c12 (stereo not drawn) [Compound 269, 1-(2-(4-(2-(7-Bromo-4-((2,6-dioxopiperidin-3-yl)carbamoyl)-2-methyl-1H-benzo[d]imidazol-1-yl)acetyl)piperazin-1-yl)ethyl)-6-chloro-3-(3-((6-fluoronaphthalen-1-yl)oxy)propyl)-7-(1,3,5-trimethyl-1H-pyrazol-4-yl)-1H-indole-2-carboxylic acid]	< 10	≤ 3160	> 10000	< 100	≤ 100	–	–	–	–	–
Cc1nn(C)c(C)c1-c1c(Cl)ccc2c(CCCOc3cccc4cc(F)ccc34)c(C(=O)O)n(CCN3CCN(C4CCN(c5cc6c(cc5F)C(=O)N(C5CCC(=O)NC5=O)C6=O)CC4)CC3)c12 (stereo not drawn) [Compound 338, 6-Chloro-1-[2-(4-{1-[2-(2,6-dioxopiperidin-3-yl)-6-fluoro-1,3-dioxo-2,3-dihydro-1H-isoindol-5-yl]piperidin-4-yl}piperazin-1-yl)ethyl]-3-{3-[(6-fluoronaphthalen-1-yl)oxy]propyl}-7-(1,3,5-trimethyl-1H-pyrazol-4-yl)-1H-indole-2-carboxylic acid]	< 10	≤ 10000	> 10000	–	≤ 31.6	–	–	–	–	–
COCc1c(-c2c(Cl)ccc3c(CCCOc4cccc5cc(F)ccc45)c(C(=O)O)n(CCN4CCN(C(=O)COc5cccc6c5CN(C5CCC(=O)NC5=O)C6=O)CC4)c23)c(C)nn1C (stereo not drawn) [Compound 349, 6-Chloro-1-(2-(4-(2-((2-(2,6-dioxopiperidin-3-yl)-1-oxoisoindolin-4-yl)oxy)acetyl)piperazin-1-yl)ethyl)-3-(3-((6-fluoronaphthalen-1-yl)oxy)propyl)-7-(5-(methoxymethyl)-1,3-dimethyl-1H-pyrazol-4-yl)-1H-indole-2-carboxylic acid]	< 100	≤ 1000	> 10000	–	≤ 31.6	–	–	–	–	–
Cc1nn(C)c(C)c1-c1c(Cl)ccc2c(CCCOc3cccc4ccccc34)c(C(=O)O)n(CCN3C[C@@H]4CN(C(=O)COc5cccc6c5C(=O)N(C5CCC(=O)NC5=O)C6=O)C[C@@H]4C3)c12 (stereo partly drawn) [Compound 211, 6-chloro-1-(2-((3aR,6aS)-5-(2-((2-(2,6-dioxopiperidin-3-yl)-1,3-dioxoisoindolin-4-yl)oxy)acetyl)hexahydropyrrolo[3,4-c]pyrrol-2(1H)-yl)ethyl)-3-(3-(naphthalen-1-yloxy)propyl)-7-(1,3,5-trimethyl-1H-pyrazol-4-yl)-1H-indole-2-carboxylic acid]	–	–	> 10000	< 100	≤ 316	≤ 3160	–	–	–	–
Cc1nn(C)c(C)c1-c1c(Cl)ccc2c(CCCOc3cccc4cc(F)ccc34)c(C(=O)O)n(CCN3CCN(C(=O)Cn4c(C)nc5c(C(=O)NC6CCC(=O)NC6=O)cc(N)cc54)CC3)c12 (stereo not drawn) [Compound 275, 1-{2-[4-(2-{6-Amino-4-[(2,6-dioxopiperidin-3-yl)carbamoyl]-2-methyl-1H-1,3-benzodiazol-1-yl}acetyl)piperazin-1-yl]ethyl}-6-chloro-3-{3-[(6-fluoronaphthalen-1-yl)oxy]propyl}-7-(1,3,5-trimethyl-1H-pyrazol-4-yl)-1H-indole-2-carboxylic acid]	–	≤ 3160	> 10000	< 100	≤ 100	–	–	–	–	–
Cc1nn(C)c(C)c1-c1c(Cl)ccc2c(CCCOc3cccc4cc(F)ccc34)c(C(=O)O)n(CCN3CCN(C(=O)COc4cccc5c4CN(C4CCC(=O)NC4=O)C5=O)CC3)c12 (atropisomer, axis not shown; (Ra)) [Compound 294, (Ra)-6-Chloro-1-(2-(4-(2-((2-(2,6-dioxopiperidin-3-yl)-1-oxoisoindolin-4-yl)oxy)acetyl)piperazin-1-yl)ethyl)-3-(3-((6-fluoronaphthalen-1-yl)oxy)propyl)-7-(1,3,5-trimethyl-1H-pyrazol-4-yl)-1H-indole-2-carboxylic acid]	–	–	–	–	–	–	≥6.0	<5.0	>7	≥7.5
Cc1nn(C)c(C)c1-c1c(Cl)ccc2c(CCCOc3cccc4ccccc34)c(C(=O)O)n(CCN3CCN(C(=O)COc4cccc5c4C(=O)N(C4CCC(=O)NC4=O)C5=O)CC34CC4)c12 (stereo not drawn) [Compound 210, 6-chloro-1-(2-(7-(2-((2-(2,6-dioxopiperidin-3-yl)-1,3-dioxoisoindolin-4-yl)oxy)acetyl)-4,7-diazaspiro[2.5]octan-4-yl)ethyl)-3-(3-(naphthalen-1-yloxy)propyl)-7-(1,3,5-trimethyl-1H-pyrazol-4-yl)-1H-indole-2-carboxylic acid]	–	–	> 10000	< 100	≤ 100	≤ 1000	–	–	–	–
Cc1nn(C)c(C)c1-c1c(Cl)ccc2c(CCCOc3cccc4ccccc34)c(C(=O)O)n(CCN3CCN(C(=O)CNc4cccc5c4C(=O)N(C4CCC(=O)NC4=O)C5=O)CC3)c12 (stereo not drawn) [Compound 207, 6-chloro-1-{2-[4-(2-{[2-(2,6-dioxopiperidin-3-yl)-1,3-dioxo-2,3-dihydro-1H-isoindol-4-yl]amino}acetyl)piperazin-1-yl]ethyl}-3-[3-(naphthalen-1-yloxy)propyl]-7-(1,3,5-trimethyl-1H-pyrazol-4-yl)-1H-indole-2-carboxylic acid]	–	–	> 10000	< 100	≤ 316	≤ 1000	–	–	–	–
